The record followed here is ChEMBL document CHEMBL1141299, “Hologram QSAR model for the prediction of human oral bioavailability” (Bioorg Med Chem, 2007).

A short description of the first data set: Oral bioavailability in human. The conditions noted are these: in vivo.
`CC(C)N(CC[C@](C(N)=O)(c1ccccc1)c1ccccn1)C(C)C` [(S)-DISOPYRAMIDE] registered a bioavailability of 83%. The same measure, in the same setting: next, `COc1c(N2CCN[C@@H](C)C2)c(F)cc2c(=O)c(C(=O)O)cn(C3CC3)c12` [(S)-GATIFLOXACIN]: 96%; `O=C1Nc2ccc(Cl)cc2C(c2ccccc2Cl)=N[C@H]1O` [(S)-LORAZEPAM]: 93%; `CN1C(=O)[C@H](O)N=C(c2ccccc2Cl)c2cc(Cl)ccc21` [(S)-LORMETAZEPAM]: 75%. Take `CC[C@]1(c2ccccc2)C(=O)NC(=O)N(C)C1=O` [(S)-METHYLPHENOBARBITAL]: the bioavailability was found to be 73%. On the same count and under the same terms, next, `COc1ccc([C@@H](CN(C)C)C2(O)CCCCC2)cc1` [(S)-VENLAFAXINE]: 45%; `CC(C)C[C@H]1C(=O)N2CCC[C@H]2[C@]2(O)O[C@](NC(=O)[C@@H]3C=C4c5cccc6[nH]c(Br)c(c56)C[C@H]4N(C)C3)(C(C)C)C(=O)N12` [BROMOCRIPTINE]: 4.5%; `O=C(O)CCCc1ccc(N(CCCl)CCCl)cc1` [CHLORAMBUCIL]: 87%.

`CN/C(=N/CCSCc1nc[nH]c1C)NC#N` [CIMETIDINE] came in with a bioavailability of 60%. As for `C[N+]1(CC2CC2)[C@@H]2C[C@@H](OC(=O)[C@H](CO)c3ccccc3)C[C@H]1[C@@H]1O[C@@H]12.[Br-]` (some centres not stated) [CIMETROPIUM BROMIDE], the bioavailability stood at 2%. Compound `O=C1CN=C(c2ccccc2Cl)c2cc([N+](=O)[O-])ccc2N1` [CLONAZEPAM] showed a bioavailability of 90%.

In turn, `CN1CCN(C2=Nc3cc(Cl)ccc3Nc3ccccc32)CC1` [CLOZAPINE] came in with a bioavailability of 55%. Take `COc1ccc2c3c1O[C@H]1[C@@H](O)C=C[C@H]4[C@@H](C2)N(C)CC[C@@]341` [CODEINE]: the bioavailability was determined as 55%. In turn, `O=P1(N(CCCl)CCCl)NCCCO1` (configuration not stated) [CYCLOPHOSPHAMIDE ANHYDROUS] had a bioavailability of 74%. Same read-out and setting: next, `CCN[C@@H](C)Cc1cccc(C(F)(F)F)c1` [DEXFENFLURAMINE]: 89%. Still for that read-out and setting: next, `C[C@H]1O[C@@H](O[C@H]2[C@@H](O)C[C@H](O[C@H]3[C@@H](O)C[C@H](O[C@H]4CC[C@@]5(C)[C@H](CC[C@@H]6[C@@H]5CC[C@]5(C)[C@@H](C7=CC(=O)OC7)CC[C@]65O)C4)O[C@@H]3C)O[C@@H]2C)C[C@H](O)[C@@H]1O` [DIGITOXIN]: 88.5%. For the compound `CC(C)C[C@H]1C(=O)N2CCC[C@H]2[C@]2(O)O[C@@](C)(NC(=O)[C@@H]3CC4c5cccc6[nH]cc(c56)C[C@H]4N(C)C3)C(=O)N12` (some centres not stated) [DIHYDROERGOSINE], the bioavailability is 10%. `CC(C)N(CC[C@@](C(N)=O)(c1ccccc1)c1ccccn1)C(C)C` [DISOPIRAMIDE] yielded a bioavailability of 83%.

Staying with this data set, now noted: in vivo, F.
`O[C@@](CCN1CCCC1)(c1ccccc1)C1CCCCC1` [(R)-PROCYCLIDINE] had a bioavailability of 75%.

`CCC(=O)c1ccc2c(c1)N(C[C@@H](C)N(C)C)c1ccccc1S2` [(R)-PROPIOMAZINE] showed a bioavailability of 33%. Same read-out and setting: next, `C[C@@H](O)Cn1cnc2c1c(=O)n(C)c(=O)n2C` [(R)-PROXYPHYLLINE]: 100%; `C[C@@H](C(=O)O)c1ccc(C(=O)c2cccs2)cc1` [(R)-SUPROFEN]: 92%. Still for that read-out and setting: next, `Cc1cccc(C)c1NC(=O)[C@@H](C)N` [(R)-TOCAINIDE]: 89%; `Cc1cccc(OC[C@H](O)CNC(C)C)c1` [(R)-TOLIPROLOL]: 90%. Compound `CC(C)[C@H](N)C(=O)OC[C@@H](CO)OCn1cnc2c(=O)nc(N)[nH]c21` [(R)-VALGANCICLOVIR] returned a bioavailability of 59.4%.

`CC(C)(C)NC[C@@H](O)c1ccc(O)c(CO)c1` [(S)-ALBUTEROL] had a bioavailability of 71%. On the same count and under the same terms, next, `CCc1cccc2cc([C@@H](O)CNC(C)(C)C)oc12` [(S)-BUFURALOL]: 46%. Compound `CCN1C[C@@H](CCN2CCOCC2)C(c2ccccc2)(c2ccccc2)C1=O` [(S)-DOXAPRAM] showed a bioavailability of 61%. Same read-out and setting: in the case of `CCOC(=O)C1=C(C)NC(C)=C(C(=O)OC)[C@@H]1c1cccc(Cl)c1Cl` [(S)-FELODIPINE] it was 15%. For `COC(=O)C1=C(C)NC(C)=C(C(=O)OC(C)C)[C@H]1c1cccc2nonc12` [(S)-ISRADIPINE], the bioavailability is 19.5%. The same measure, in the same setting: in the case of `Cc1cc2c(OC[C@@H](O)CNC(C)C)cccc2[nH]1` [(S)-MEPINDOLOL] it was 82%; in that of `Cc1cccc(C)c1OC[C@H](C)N` [(S)-MEXILETINE], 87%; in that of `COc1ccc(OC)c([C@H](O)CNC(=O)CN)c1` [(S)-MIDODRINE], 93%. The same measure, in the same setting: next, `CC(C)[C@H]1CC[C@H](C(=O)N[C@@H](Cc2ccccc2)C(=O)O)CC1` [(S)-NATEGLINIDE]: 73%; `CCOC(=O)C1=C(C)NC(C)=C(C(=O)OC)[C@@H]1c1cccc([N+](=O)[O-])c1` [(S)-NITRENDIPINE]: 16%. On the same count and under the same terms, next, `Cc1nccn1C[C@@H]1CCc2c(c3ccccc3n2C)C1=O` [(S)-ONDANSETRON]: 62%; `O[C@](CCN1CCCC1)(c1ccccc1)C1CCCCC1` [(S)-PROCYCLIDINE]: 75%.

The compound `C[C@@H](CN1c2ccccc2Sc2ccccc21)N(C)C` [(S)-PROMETHAZINE] yielded a bioavailability of 25%. The same measure, in the same setting: next, `C[C@H](O)Cn1cnc2c1c(=O)n(C)c(=O)n2C` [(S)-PROXYPHYLLINE]: 100%; `C[C@H](C(=O)O)c1ccc(C(=O)c2cccs2)cc1` [(S)-SUPROFEN]: 92%; `Cc1cccc(OC[C@@H](O)CNC(C)C)c1` [(S)-TOLIPROLOL]: 90%. The same measure, in the same setting: in the case of `CC(C)[C@H](N)C(=O)OC[C@H](CO)OCn1cnc2c(=O)nc(N)[nH]c21` [(S)-VALGANCICLOVIR] it was 59.4%; in that of `CC(=O)Nc1ccc(O)cc1` [ACETAMINOPHEN], 88%; in that of `CN(C)CCc1c[nH]c2ccc(CS(=O)(=O)N3CCCC3)cc12` [ALMOTRIPTAN], 70%.

Turning to `Cc1[nH]cnc1CN1CCc2c(c3ccccc3n2C)C1=O` [ALOSETRON], the bioavailability came to 55%. The same measure, in the same setting: in the case of `CC(C)(C#N)c1cc(Cn2cncn2)cc(C(C)(C)C#N)c1` [ANASTROZOLE] it was 84%; in that of `CC(=O)Oc1ccccc1C(=O)O` [ASPIRIN], 68%; in that of `CNCC[C@@H](Oc1ccccc1C)c1ccccc1` [ATOMOXETINE], 63%.

The compound `O=C1C(O)=C([C@H]2CC[C@H](c3ccc(Cl)cc3)CC2)C(=O)c2ccccc21` [ATOVAQUONE] registered a bioavailability of 23%. Take `COc1ccccc1Oc1c(NS(=O)(=O)c2ccc(C(C)(C)C)cc2)nc(-c2ncccn2)nc1OCCO` [BOSENTAN]: the bioavailability turned out to be 50%.

Turning to `CCCC1O[C@@H]2C[C@H]3[C@@H]4CCC5=CC(=O)C=C[C@]5(C)[C@H]4[C@@H](O)C[C@]3(C)[C@]2(C(=O)CO)O1` (some centres not stated) [BUDESONIDE], the bioavailability was 11%. Same read-out and setting: next, `CCCCNc1cc(C(=O)O)cc(S(N)(=O)=O)c1Oc1ccccc1` [BUMETANIDE]: 81%; `CS(=O)(=O)OCCCCOS(C)(=O)=O` [BUSULFAN]: 80%. The same measure, in the same setting: in the case of `Cn1c(=O)c2c(ncn2C)n(C)c1=O` [CAFFEINE] it was 100%; in that of `N[C@@H](C(=O)N[C@@H]1C(=O)N2C(C(=O)O)=C(Cl)CS[C@H]12)c1ccccc1` [CEFACLOR ANHYDROUS], 90%; in that of `Cc1nnc(SCC2=C(C(=O)O)N3C(=O)[C@@H](NC(=O)Cn4cnnn4)[C@H]3SC2)s1` [CEFAZOLIN], 90%. The same measure, in the same setting: in the case of `CCCCCCCCCCCCCCCC(=O)OC[C@@H](NC(=O)C(Cl)Cl)[C@H](O)c1ccc([N+](=O)[O-])cc1` [CHLORAMPHENICOL PALMITATE] it was 80%.

On to `O=C(N[C@H](CO)[C@H](O)c1ccc([N+](=O)[O-])cc1)C(Cl)Cl` [CHLORAMPHENICOL], for which the bioavailability turned out to be 69%.

For `CN(C)[C@@H]1C(O)=C(C(N)=O)C(=O)[C@@]2(O)C(O)=C3C(=O)c4c(O)ccc(Cl)c4[C@@](C)(O)[C@H]3C[C@@H]12` [CHLORTETRACYCLINE], the bioavailability turned out to be 27.5%.

Regarding `CC[C@H]1OC(=O)[C@H](C)[C@@H](O[C@H]2C[C@@](C)(OC)[C@@H](O)[C@H](C)O2)[C@H](C)[C@@H](O[C@@H]2O[C@H](C)C[C@H](N(C)C)[C@H]2O)[C@](C)(OC)C[C@@H](C)C(=O)[C@H](C)[C@@H](O)[C@]1(C)O` [CLARITHROMYCIN], the bioavailability was 50%.

Turning to `O=C(O)[C@H]1/C(=C/CO)O[C@@H]2CC(=O)N21` [CLAVULANIC ACID], the bioavailability turned out to be 75%. The same measure, in the same setting: next, `CCOC(=O)C(C)(C)Oc1ccc(Cl)cc1` [CLOFIBRATE]: 95%; `Clc1cccc(Cl)c1N=C1NCCN1` [CLONIDINE]: 60%; `Cc1onc(-c2ccccc2Cl)c1C(=O)N[C@@H]1C(=O)N2[C@@H]1SC(C)(C)[C@@H]2C(=O)O` [CLOXACILLIN]: 37%. In the case of `Nc1ccc(S(=O)(=O)c2ccc(N)cc2)cc1` [DAPSONE], the bioavailability was determined as 93%.

Compound `CC(C)Nc1cccnc1N1CCN(C(=O)c2cc3cc(NS(C)(=O)=O)ccc3[nH]2)CC1` [DELAVIRDINE] registered a bioavailability of 96%. In the case of `CC(C)Cc1ccc([C@H](C)C(=O)O)cc1` [DEXIBUPROFEN], the bioavailability worked out at 80%. As for `CC(C)NC[C@@H](O)c1ccc(NS(C)(=O)=O)cc1` [DEXSOTALOL], the bioavailability is 60%.

`C[C@@H]1COc2c(N3CCN(C)CC3)c(F)cc3c(=O)c(C(=O)O)cn1c23` [DEXTROFLOXACINE] yielded a bioavailability of 97.5%. As to `O=C(O)c1cc(-c2ccc(F)cc2F)ccc1O` [DIFLUNISAL], the bioavailability was determined as 100%. `C[C@H]1O[C@@H](O[C@H]2[C@@H](O)C[C@H](O[C@H]3[C@@H](O)C[C@H](O[C@H]4CC[C@@]5(C)[C@H](CC[C@@H]6[C@@H]5C[C@@H](O)[C@]5(C)[C@@H](C7=CC(=O)OC7)CC[C@]65O)C4)O[C@@H]3C)O[C@@H]2C)C[C@H](O)[C@@H]1O` [DIGOXIN] had a bioavailability of 95%. Still for that read-out and setting: next, `COc1ccc([C@@H]2Sc3ccccc3N(CCN(C)C)C(=O)[C@@H]2OC(C)=O)cc1` [DILTIAZEM]: 40%.
